Data as given in PubChem BioAssay (NCI).
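Assay format: 96-well plates, 48-hour exposure. GI50: concentration for 50% inhibition of growth. TGI is the concentration that stops growth completely.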

Legend:
Test in all cases: inhibition of tumour cell growth, NCI panel, 48 h
HCC-2998 colon = tested on: HCC-2998 colon
MCF7 breast = tested on: MCF7 breast
SK-MEL-28 melanoma = tested on: SK-MEL-28 melanoma
SF-539 CNS = tested on: SF-539 CNS
SK-OV-3 ovarian = tested on: SK-OV-3 ovarian
COLO 205 colon = tested on: COLO 205 colon
KM12 colon = tested on: KM12 colon
MALME-3M melanoma = tested on: MALME-3M melanoma
SR leukemia = tested on: SR leukemia
NCI-H226 lung = tested on: NCI-H226 lung
OVCAR-4 ovarian = tested on: OVCAR-4 ovarian
UO-31 renal = tested on: UO-31 renal
NCI-H522 lung = tested on: NCI-H522 lung
HT29 colon = tested on: HT29 colon
TK-10 renal = tested on: TK-10 renal
MDA-MB-435 = tested on: MDA-MB-435
MOLT-4 leukemia = tested on: MOLT-4 leukemia
UACC-257 melanoma = tested on: UACC-257 melanoma
A498 renal = tested on: A498 renal
OVCAR-3 ovarian = tested on: OVCAR-3 ovarian
SNB-75 CNS = tested on: SNB-75 CNS
DU-145 prostate = tested on: DU-145 prostate
NCI-H23 lung = tested on: NCI-H23 lung
PC-3 prostate = tested on: PC-3 prostate
K-562 leukemia = tested on: K-562 leukemia
A549 NSCLC = tested on: A549 NSCLC
IGROV1 ovarian = tested on: IGROV1 ovarian
SK-MEL-2 melanoma = tested on: SK-MEL-2 melanoma
SF-268 CNS = tested on: SF-268 CNS
MDA-MB-231 breast = tested on: MDA-MB-231 breast
NCI-H460 lung = tested on: NCI-H460 lung
MDA-MB-468 breast = tested on: MDA-MB-468 breast
OVCAR-8 ovarian = tested on: OVCAR-8 ovarian
CCRF-CEM leukemia = tested on: CCRF-CEM leukemia
SN12C renal = tested on: SN12C renal
RXF 393 renal = tested on: RXF 393 renal
T-47D breast = tested on: T-47D breast
SK-MEL-5 melanoma = tested on: SK-MEL-5 melanoma
SNB-19 CNS = tested on: SNB-19 CNS
U251 CNS = tested on: U251 CNS
HOP-62 NSCLC = tested on: HOP-62 NSCLC
HCT-15 colon = tested on: HCT-15 colon
SF-295 CNS = tested on: SF-295 CNS
ACHN renal = tested on: ACHN renal
M14 melanoma = tested on: M14 melanoma
UACC-62 melanoma = tested on: UACC-62 melanoma
HS 578T breast = tested on: HS 578T breast
SW-620 colon = tested on: SW-620 colon
786-0 renal = tested on: 786-0 renal
RPMI-8226 leukemia = tested on: RPMI-8226 leukemia
LOX IMVI melanoma = tested on: LOX IMVI melanoma
HCT-116 colon = tested on: HCT-116 colon
BT-549 breast = tested on: BT-549 breast
CAKI-1 renal = tested on: CAKI-1 renal
EKVX NSCLC = tested on: EKVX NSCLC
HL-60(TB) leukemia = tested on: HL-60(TB) leukemia
OVCAR-5 ovarian = tested on: OVCAR-5 ovarian
HOP-92 NSCLC = tested on: HOP-92 NSCLC

CN1CCN(Cc2ccc(C(=O)Nc3cccc(Nc4ccc5cc(O)ccc5n4)c3)cc2C(F)(F)F)CC1
GI50 (HCC-2998 colon): 2.39 µM | TGI (HCC-2998 colon): 5.22 µM | GI50 (MCF7 breast): 2.46 µM | TGI (MCF7 breast): 7.31 µM | GI50 (SK-MEL-28 melanoma): 1.79 µM | TGI (SK-MEL-28 melanoma): 3.32 µM | GI50 (SF-539 CNS): 1.98 µM | TGI (SF-539 CNS): 12.2 µM | GI50 (SK-OV-3 ovarian): 16.5 µM | TGI (SK-OV-3 ovarian): 30.5 µM | GI50 (COLO 205 colon): 10.2 µM | TGI (COLO 205 colon): 23.8 µM | GI50 (KM12 colon): 3.17 µM | TGI (KM12 colon): 10.9 µM | GI50 (MALME-3M melanoma): 1.59 µM | TGI (MALME-3M melanoma): 3.15 µM | GI50 (SR leukemia): 2.68 µM | TGI (SR leukemia): 8.5 µM | GI50 (NCI-H226 lung): 16 µM | TGI (NCI-H226 lung): 33.3 µM | GI50 (OVCAR-4 ovarian): 11.2 µM | TGI (OVCAR-4 ovarian): 23.8 µM | GI50 (UO-31 renal): 13.4 µM | TGI (UO-31 renal): 27.3 µM | GI50 (NCI-H522 lung): 4.82 µM | TGI (NCI-H522 lung): 17.5 µM | GI50 (HT29 colon): 3.37 µM | TGI (HT29 colon): 12 µM | GI50 (TK-10 renal): 21.4 µM | TGI (TK-10 renal): 35.8 µM | GI50 (MDA-MB-435): 8.53 µM | TGI (MDA-MB-435): 20.8 µM | GI50 (MOLT-4 leukemia): 3.52 µM | TGI (MOLT-4 leukemia): 9.49 µM | GI50 (UACC-257 melanoma): 7.35 µM | TGI (UACC-257 melanoma): 20.6 µM | GI50 (A498 renal): 22.5 µM | TGI (A498 renal): 37.1 µM | GI50 (OVCAR-3 ovarian): 11.2 µM | TGI (OVCAR-3 ovarian): 23.4 µM | GI50 (SNB-75 CNS): 0.656 µM | TGI (SNB-75 CNS): 15.3 µM | GI50 (DU-145 prostate): 10.5 µM | TGI (DU-145 prostate): 22.3 µM | GI50 (NCI-H23 lung): 13.9 µM | TGI (NCI-H23 lung): 28.5 µM | GI50 (PC-3 prostate): 4.68 µM | TGI (PC-3 prostate): 20.1 µM | GI50 (K-562 leukemia): 1.88 µM | TGI (K-562 leukemia): 4.51 µM | GI50 (A549 NSCLC): 8.7 µM | TGI (A549 NSCLC): 22.3 µM | GI50 (IGROV1 ovarian): 16.6 µM | TGI (IGROV1 ovarian): 31.3 µM | GI50 (SK-MEL-2 melanoma): 13.5 µM | TGI (SK-MEL-2 melanoma): 26.4 µM | GI50 (SF-268 CNS): 10.4 µM | TGI (SF-268 CNS): 23.8 µM | GI50 (MDA-MB-231 breast): 2.54 µM | TGI (MDA-MB-231 breast): 7.9 µM | GI50 (NCI-H460 lung): 3.84 µM | TGI (NCI-H460 lung): 15.2 µM | GI50 (MDA-MB-468 breast): 2.23 µM | TGI (MDA-MB-468 breast): 6.47 µM | GI50 (OVCAR-8 ovarian): 13.2 µM | TGI (OVCAR-8 ovarian): 28.4 µM | GI50 (CCRF-CEM leukemia): 3.48 µM | TGI (CCRF-CEM leukemia): 17.2 µM | GI50 (SN12C renal): 14.1 µM | TGI (SN12C renal): 27.6 µM | GI50 (RXF 393 renal): 3.55 µM | TGI (RXF 393 renal): 15.7 µM | GI50 (T-47D breast): 14.6 µM | TGI (T-47D breast): 32.2 µM | GI50 (SK-MEL-5 melanoma): 2.35 µM | TGI (SK-MEL-5 melanoma): 6.4 µM | GI50 (SNB-19 CNS): 13.7 µM | TGI (SNB-19 CNS): 27.5 µM | GI50 (U251 CNS): 2.17 µM | TGI (U251 CNS): 6.49 µM | GI50 (HOP-62 NSCLC): 12.1 µM | TGI (HOP-62 NSCLC): 24.9 µM | GI50 (HCT-15 colon): 2.09 µM | TGI (HCT-15 colon): 4.49 µM | GI50 (SF-295 CNS): 2.33 µM | TGI (SF-295 CNS): 5.64 µM | GI50 (ACHN renal): 7.59 µM | TGI (ACHN renal): 23.1 µM | GI50 (M14 melanoma): 9.06 µM | TGI (M14 melanoma): 23.5 µM | GI50 (UACC-62 melanoma): 15.4 µM | TGI (UACC-62 melanoma): 29.2 µM | GI50 (HS 578T breast): 4.17 µM | TGI (HS 578T breast): 35.3 µM | GI50 (SW-620 colon): 2.3 µM | TGI (SW-620 colon): 4.57 µM | GI50 (786-0 renal): 3.13 µM | TGI (786-0 renal): 10.9 µM | GI50 (RPMI-8226 leukemia): 2.65 µM | TGI (RPMI-8226 leukemia): 7.1 µM | GI50 (LOX IMVI melanoma): 1.73 µM | TGI (LOX IMVI melanoma): 3.19 µM | GI50 (HCT-116 colon): 3.93 µM | TGI (HCT-116 colon): 15 µM | GI50 (BT-549 breast): 12.2 µM | TGI (BT-549 breast): 25.4 µM | GI50 (CAKI-1 renal): 11.9 µM | TGI (CAKI-1 renal): 24.3 µM | GI50 (EKVX NSCLC): 14.2 µM | TGI (EKVX NSCLC): 28.3 µM | GI50 (HL-60(TB) leukemia): 2.58 µM | TGI (HL-60(TB) leukemia): 4.86 µM | GI50 (OVCAR-5 ovarian): 14.2 µM | TGI (OVCAR-5 ovarian): 27.7 µM | GI50 (HOP-92 NSCLC): 3.39 µM | TGI (HOP-92 NSCLC): 17 µM
